Data as given in ChEMBL document CHEMBL1129773, “Novel 1,2-diarylcyclobutenes: Selective and orally active cox-2 inhibitors” (Bioorg Med Chem Lett, 1996).

Experiments:
[1] = target: Prostaglandin G/H synthase 1 (Homo sapiens, UniProt P23219)
Rattus norvegicus [2] = species: Rattus norvegicus; test: animal or person; conditions: po, read-out: Inhibition
Rattus norvegicus [3] = test: Compound was tested in vivo for efficacy in the rat paw edema assay upon oral administration.; type: functional
[4] = Compound was tested for plasma concentration in rats when administered at 20 mg/kg in 1% methocel at 1 hr; type: ADME, organism-based; parameters: dose 20 mg/kg; conditions: rat, read-out: Cmax
[5] = target: T1, Prostaglandin G/H synthase 2 (Homo sapiens, UniProt P35354); type: cell-based, CHO
T1 sequence (P35354 whole entry): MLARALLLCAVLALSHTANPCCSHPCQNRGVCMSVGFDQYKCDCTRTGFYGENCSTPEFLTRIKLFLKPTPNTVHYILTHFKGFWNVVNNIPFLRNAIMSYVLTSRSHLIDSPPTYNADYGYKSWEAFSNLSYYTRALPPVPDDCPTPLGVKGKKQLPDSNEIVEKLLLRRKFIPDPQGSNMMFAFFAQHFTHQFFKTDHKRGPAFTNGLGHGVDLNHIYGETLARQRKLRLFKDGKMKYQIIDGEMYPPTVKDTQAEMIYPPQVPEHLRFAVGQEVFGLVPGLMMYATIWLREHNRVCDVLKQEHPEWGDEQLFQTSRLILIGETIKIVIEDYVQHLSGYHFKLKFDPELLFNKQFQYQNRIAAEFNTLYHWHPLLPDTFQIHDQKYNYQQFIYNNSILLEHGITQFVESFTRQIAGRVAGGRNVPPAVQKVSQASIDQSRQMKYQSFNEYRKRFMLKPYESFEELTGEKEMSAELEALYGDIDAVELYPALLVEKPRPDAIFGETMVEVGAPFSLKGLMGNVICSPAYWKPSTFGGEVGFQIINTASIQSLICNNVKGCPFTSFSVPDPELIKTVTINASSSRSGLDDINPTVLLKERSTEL

in vivo = conditions: rat, plasma, 20 mg/kg
Description: Compound was tested for plasma concentration in rats when administered at 20 mg/kg in 1% methocel at 2 hr

Chain of Prostaglandin G/H synthase 1 (P23219 whole entry): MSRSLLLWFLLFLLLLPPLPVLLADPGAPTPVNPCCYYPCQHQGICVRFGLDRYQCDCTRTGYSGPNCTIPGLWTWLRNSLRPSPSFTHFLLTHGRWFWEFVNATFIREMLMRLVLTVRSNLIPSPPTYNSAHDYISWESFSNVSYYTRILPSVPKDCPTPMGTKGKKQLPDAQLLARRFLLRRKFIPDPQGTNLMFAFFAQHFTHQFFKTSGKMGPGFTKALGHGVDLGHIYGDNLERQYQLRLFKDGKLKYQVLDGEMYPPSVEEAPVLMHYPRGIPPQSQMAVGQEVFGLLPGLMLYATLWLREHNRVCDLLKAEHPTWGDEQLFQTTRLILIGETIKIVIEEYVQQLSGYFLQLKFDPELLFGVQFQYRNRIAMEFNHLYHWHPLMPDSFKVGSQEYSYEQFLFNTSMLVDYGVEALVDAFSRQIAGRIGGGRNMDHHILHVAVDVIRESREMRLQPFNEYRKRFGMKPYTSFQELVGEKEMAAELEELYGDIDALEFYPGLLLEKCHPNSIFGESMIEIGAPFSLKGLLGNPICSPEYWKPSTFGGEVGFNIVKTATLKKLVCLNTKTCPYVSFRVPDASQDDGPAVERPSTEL

Row | Structure (SMILES) | IC50 [1] [nM] | concentration at 1 h [4] [nM] | IC50 [5] [nM] | concentration at 2 h (in vivo) [nM] | inhibition in vivo at 30 mg/kg (Rattus norvegicus [2]) [%] | ED50 (Rattus norvegicus [3]) [mg/kg]
1 | CS(=O)(=O)c1ccc(C2=C(c3ccc(F)cc3)CC3(CC3)C2)cc1 | 140 |  |  |  | 38 | 
2 | CC1(C)C(c2ccc(S(C)(=O)=O)cc2)=C(c2ccccc2)/C1=N/O | 34000 | 1800 | 61 |  |  | 4.2
3 | CS(=O)(=O)c1ccc(C2=C(c3ccccc3)C(=O)C23CCCC3)cc1 | 500 |  | 12 |  |  | 
4 | CC1(C)C(c2ccc(S(C)(=O)=O)cc2)=C(c2ccccc2)C1O (configuration not stated) | 45000 |  | 530 |  |  | 
5 | CC1(C)C(=O)C(c2ccc(F)cc2)=C1c1ccc(S(C)(=O)=O)cc1 | 370 |  | 5 |  |  | 
6 | CS(=O)(=O)c1ccc(-c2cc(Br)sc2-c2ccc(F)cc2)cc1 [DUP-697] |  |  |  | 700 |  | 1.3

Continued, in another order:

Row | IC50 [1] [nM] | concentration at 1 h [4] [nM] | IC50 [5] [nM] | concentration at 2 h (in vivo) [nM] | Structure (SMILES) | inhibition in vivo at 30 mg/kg (Rattus norvegicus [2]) [%] | ED50 (Rattus norvegicus [3]) [mg/kg]
7 | 540 | 1000 |  |  | C=C1CC(c2ccc(S(C)(=O)=O)cc2)=C1c1ccccc1 |  | 5.5
8 | 2000 | 8500 |  |  | CC1(C)C(=O)C(c2ccc(S(C)(=O)=O)cc2)=C1c1ccccc1 |  | 2.7
9 |  | 7500 |  |  | CC1(C)C(=O)C(c2ccccc2)=C1c1ccc(S(C)(=O)=O)cc1 |  | 2.4
10 | 120 |  | 2.2 |  | C=C1C(c2ccccc2)=C(c2ccc(S(C)(=O)=O)cc2)C1(C)C |  | 
11 |  |  | > 5000 |  | CS(=O)(=O)c1ccc(C2=C(c3ccccc3)CC2)cc1 |  | 
12 | 4400 |  | 110 |  | CS(=O)(=O)c1ccc(C2=C(c3ccccc3)C(=O)C2)cc1 |  | 
